Results: PubChem BioAssay (NCI)
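These data come from cells grown in 96-well plates and exposed to compound for 48 hours at five concentrations. GI50 = concentration required for 50% inhibition of growth. At the TGI there is no net growth.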

Experiments:
Assay in all cases: NCI tumour cell line growth inhibition, 48 h; in the data active means GI50 below about 0.43 µM; inactive means the rest
SF-295 CNS = test system: SF-295 CNS
HS 578T breast = test system: HS 578T breast
ACHN renal = test system: ACHN renal
NCI-H23 lung = test system: NCI-H23 lung
HOP-62 NSCLC = test system: HOP-62 NSCLC
OVCAR-8 ovarian = test system: OVCAR-8 ovarian
SF-268 CNS = test system: SF-268 CNS
NCI/ADR-RES ovarian = test system: NCI/ADR-RES ovarian
M14 melanoma = test system: M14 melanoma
MCF7 breast = test system: MCF7 breast
NCI-H226 lung = test system: NCI-H226 lung
RPMI-8226 leukemia = test system: RPMI-8226 leukemia
EKVX NSCLC = test system: EKVX NSCLC
NCI-H460 lung = test system: NCI-H460 lung
OVCAR-5 ovarian = test system: OVCAR-5 ovarian
SK-MEL-28 melanoma = test system: SK-MEL-28 melanoma
MDA-MB-231 breast = test system: MDA-MB-231 breast
OVCAR-4 ovarian = test system: OVCAR-4 ovarian
RXF 393 renal = test system: RXF 393 renal
KM12 colon = test system: KM12 colon
SK-MEL-2 melanoma = test system: SK-MEL-2 melanoma
SW-620 colon = test system: SW-620 colon
TK-10 renal = test system: TK-10 renal
U251 CNS = test system: U251 CNS
UACC-62 melanoma = test system: UACC-62 melanoma
SNB-75 CNS = test system: SNB-75 CNS
NCI-H522 lung = test system: NCI-H522 lung
SNB-19 CNS = test system: SNB-19 CNS
K-562 leukemia = test system: K-562 leukemia
T-47D breast = test system: T-47D breast
CAKI-1 renal = test system: CAKI-1 renal
SF-539 CNS = test system: SF-539 CNS
DU-145 prostate = test system: DU-145 prostate
A549 NSCLC = test system: A549 NSCLC
UO-31 renal = test system: UO-31 renal
HCT-15 colon = test system: HCT-15 colon
OVCAR-3 ovarian = test system: OVCAR-3 ovarian
HL-60(TB) leukemia = test system: HL-60(TB) leukemia
BT-549 breast = test system: BT-549 breast
MALME-3M melanoma = test system: MALME-3M melanoma
SK-OV-3 ovarian = test system: SK-OV-3 ovarian
IGROV1 ovarian = test system: IGROV1 ovarian
MOLT-4 leukemia = test system: MOLT-4 leukemia
A498 renal = test system: A498 renal
HOP-92 NSCLC = test system: HOP-92 NSCLC
LOX IMVI melanoma = test system: LOX IMVI melanoma
SN12C renal = test system: SN12C renal
CCRF-CEM leukemia = test system: CCRF-CEM leukemia
HCC-2998 colon = test system: HCC-2998 colon
HCT-116 colon = test system: HCT-116 colon
MDA-MB-435 = test system: MDA-MB-435
786-0 renal = test system: 786-0 renal
PC-3 prostate = test system: PC-3 prostate
HT29 colon = test system: HT29 colon
UACC-257 melanoma = test system: UACC-257 melanoma
SK-MEL-5 melanoma = test system: SK-MEL-5 melanoma
COLO 205 colon = test system: COLO 205 colon

NC(=Nc1ccc(N)cc1)C(N)=Nc1ccc(N)cc1
inactive: GI50 (SF-295 CNS) > 100 µM | GI50 (HS 578T breast) > 100 µM | GI50 (ACHN renal) 37.5 µM | GI50 (NCI-H23 lung) > 100 µM | GI50 (HOP-62 NSCLC) > 100 µM | GI50 (OVCAR-8 ovarian) 69.1 µM | GI50 (SF-268 CNS) > 100 µM | GI50 (NCI/ADR-RES ovarian) > 100 µM | GI50 (M14 melanoma) > 100 µM | GI50 (MCF7 breast) 82.8 µM | GI50 (NCI-H226 lung) > 100 µM | GI50 (RPMI-8226 leukemia) > 100 µM | GI50 (EKVX NSCLC) > 100 µM | GI50 (NCI-H460 lung) > 100 µM | GI50 (OVCAR-5 ovarian) > 100 µM | GI50 (SK-MEL-28 melanoma) > 100 µM | GI50 (MDA-MB-231 breast) 77.6 µM | GI50 (OVCAR-4 ovarian) > 100 µM | GI50 (RXF 393 renal) > 100 µM | GI50 (KM12 colon) 61 µM | GI50 (SK-MEL-2 melanoma) > 100 µM | GI50 (SW-620 colon) 64.1 µM | GI50 (TK-10 renal) > 100 µM | GI50 (U251 CNS) > 100 µM | GI50 (UACC-62 melanoma) > 100 µM | GI50 (SNB-75 CNS) > 100 µM | GI50 (NCI-H522 lung) > 100 µM | GI50 (SNB-19 CNS) > 100 µM | GI50 (K-562 leukemia) 81.8 µM | GI50 (T-47D breast) > 100 µM | GI50 (CAKI-1 renal) 52.6 µM | GI50 (SF-539 CNS) 73.7 µM | GI50 (DU-145 prostate) > 100 µM | GI50 (A549 NSCLC) > 100 µM | GI50 (UO-31 renal) 33.5 µM | GI50 (HCT-15 colon) 42.6 µM | GI50 (OVCAR-3 ovarian) 33.3 µM | GI50 (HL-60(TB) leukemia) 57.1 µM | GI50 (BT-549 breast) > 100 µM | GI50 (MALME-3M melanoma) 45.9 µM | GI50 (SK-OV-3 ovarian) > 100 µM | GI50 (IGROV1 ovarian) 79.1 µM | GI50 (MOLT-4 leukemia) 55.5 µM | GI50 (A498 renal) 25.3 µM | GI50 (HOP-92 NSCLC) > 100 µM | GI50 (LOX IMVI melanoma) > 100 µM | GI50 (SN12C renal) > 100 µM | GI50 (CCRF-CEM leukemia) 45.7 µM | GI50 (HCC-2998 colon) > 100 µM | GI50 (HCT-116 colon) 92.5 µM | GI50 (MDA-MB-435) > 100 µM | GI50 (786-0 renal) > 100 µM | GI50 (PC-3 prostate) 98.6 µM | GI50 (HT29 colon) 63.4 µM | GI50 (UACC-257 melanoma) > 100 µM | GI50 (SK-MEL-5 melanoma) > 100 µM | GI50 (COLO 205 colon) 43.5 µM
> 100 µM: TGI (SF-295 CNS) | TGI (HS 578T breast) | TGI (ACHN renal) | TGI (NCI-H23 lung) | TGI (HOP-62 NSCLC) | TGI (OVCAR-8 ovarian) | TGI (SF-268 CNS) | TGI (NCI/ADR-RES ovarian) | TGI (M14 melanoma) | TGI (MCF7 breast) | TGI (NCI-H226 lung) | TGI (RPMI-8226 leukemia) | TGI (EKVX NSCLC) | TGI (NCI-H460 lung) | TGI (OVCAR-5 ovarian) | TGI (SK-MEL-28 melanoma) | TGI (MDA-MB-231 breast) | TGI (OVCAR-4 ovarian) | TGI (RXF 393 renal) | TGI (KM12 colon) | TGI (SK-MEL-2 melanoma) | TGI (SW-620 colon) | TGI (TK-10 renal) | TGI (U251 CNS) | TGI (UACC-62 melanoma) | TGI (SNB-75 CNS) | TGI (NCI-H522 lung) | TGI (SNB-19 CNS) | TGI (K-562 leukemia) | TGI (T-47D breast) | TGI (CAKI-1 renal) | TGI (SF-539 CNS) | TGI (DU-145 prostate) | TGI (A549 NSCLC) | TGI (UO-31 renal) | TGI (HCT-15 colon) | TGI (OVCAR-3 ovarian) | TGI (HL-60(TB) leukemia) | TGI (BT-549 breast) | TGI (MALME-3M melanoma) | TGI (SK-OV-3 ovarian) | TGI (IGROV1 ovarian) | TGI (MOLT-4 leukemia) | TGI (A498 renal) | TGI (HOP-92 NSCLC) | TGI (LOX IMVI melanoma) | TGI (SN12C renal) | TGI (CCRF-CEM leukemia) | TGI (HCC-2998 colon) | TGI (HCT-116 colon) | TGI (MDA-MB-435) | TGI (786-0 renal) | TGI (PC-3 prostate) | TGI (HT29 colon) | TGI (UACC-257 melanoma) | TGI (SK-MEL-5 melanoma) | TGI (COLO 205 colon)
